# Key:
# [1] = target: 5-hydroxytryptamine receptor 2A (Homo sapiens, UniProt P28223); test: Binding affinity to human 5HT2A receptor
# [2] = target: T1, 5-hydroxytryptamine receptor 1A (Homo sapiens, UniProt P08908); test: biochemical
# T1 sequence (P08908 whole entry): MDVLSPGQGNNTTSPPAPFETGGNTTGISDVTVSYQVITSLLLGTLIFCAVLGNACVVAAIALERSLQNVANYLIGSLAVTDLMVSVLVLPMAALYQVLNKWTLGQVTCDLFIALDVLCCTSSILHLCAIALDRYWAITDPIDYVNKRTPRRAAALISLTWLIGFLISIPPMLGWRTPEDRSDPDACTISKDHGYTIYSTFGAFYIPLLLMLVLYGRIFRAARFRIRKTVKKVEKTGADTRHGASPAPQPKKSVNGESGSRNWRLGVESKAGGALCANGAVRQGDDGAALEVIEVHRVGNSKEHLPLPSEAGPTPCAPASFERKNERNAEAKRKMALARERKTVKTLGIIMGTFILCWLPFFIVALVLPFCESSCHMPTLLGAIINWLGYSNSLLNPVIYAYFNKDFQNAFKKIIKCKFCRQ
# Description: Displacement of [3H]-8-OH-DPAT from human 5HT1A receptor expressed in HeLa cells
# [3] = target: T2, 5-hydroxytryptamine receptor 1A (Homo sapiens) (UniProt P08908); test: Intrinsic activity at human […] 5HT1A receptor expressed in HeLa cells by [3H]-thymidine uptake assay; assay type: cell-based
# T2 sequence (whole entry): T1 sequence (P08908 whole entry)
# [4] = target: Voltage-gated inwardly rectifying potassium channel KCNH2 (Homo sapiens, UniProt Q12809)
# Chain of Voltage-gated inwardly rectifying potassium channel KCNH2 (Q12809 whole entry): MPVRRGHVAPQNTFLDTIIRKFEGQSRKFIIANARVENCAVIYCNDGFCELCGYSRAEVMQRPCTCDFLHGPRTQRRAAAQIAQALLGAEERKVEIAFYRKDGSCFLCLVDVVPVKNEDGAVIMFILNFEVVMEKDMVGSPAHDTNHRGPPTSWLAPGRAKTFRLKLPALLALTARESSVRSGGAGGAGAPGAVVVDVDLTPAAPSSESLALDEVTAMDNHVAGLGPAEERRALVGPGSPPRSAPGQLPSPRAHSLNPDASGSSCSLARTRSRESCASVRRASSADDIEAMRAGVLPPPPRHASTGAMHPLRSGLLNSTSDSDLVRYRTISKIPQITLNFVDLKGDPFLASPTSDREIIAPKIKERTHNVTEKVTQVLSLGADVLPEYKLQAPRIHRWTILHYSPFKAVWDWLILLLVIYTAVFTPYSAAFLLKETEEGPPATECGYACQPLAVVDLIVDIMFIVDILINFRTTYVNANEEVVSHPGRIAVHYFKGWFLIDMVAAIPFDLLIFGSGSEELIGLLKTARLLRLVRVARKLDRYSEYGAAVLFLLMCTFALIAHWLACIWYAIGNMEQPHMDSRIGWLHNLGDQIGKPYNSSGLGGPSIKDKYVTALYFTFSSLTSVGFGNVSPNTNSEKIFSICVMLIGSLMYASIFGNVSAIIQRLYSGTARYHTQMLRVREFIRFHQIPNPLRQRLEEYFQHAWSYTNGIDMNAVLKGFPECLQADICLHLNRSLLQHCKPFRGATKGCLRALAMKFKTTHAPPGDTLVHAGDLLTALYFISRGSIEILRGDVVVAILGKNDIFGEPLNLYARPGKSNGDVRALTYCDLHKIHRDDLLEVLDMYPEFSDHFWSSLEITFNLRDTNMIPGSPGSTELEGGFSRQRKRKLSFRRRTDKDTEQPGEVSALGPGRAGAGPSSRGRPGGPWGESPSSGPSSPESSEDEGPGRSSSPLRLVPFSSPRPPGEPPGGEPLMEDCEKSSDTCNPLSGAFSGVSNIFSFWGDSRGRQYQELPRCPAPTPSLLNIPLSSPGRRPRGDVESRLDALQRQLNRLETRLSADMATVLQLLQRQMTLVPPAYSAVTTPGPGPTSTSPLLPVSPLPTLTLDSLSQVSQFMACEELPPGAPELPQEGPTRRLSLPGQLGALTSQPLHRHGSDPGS
# Description: Displacement of [3H]dofetilide from human ERG
# [5] = target: T1, 5-hydroxytryptamine receptor 1A; test: Binding affinity to human 5HT1A receptor expressed in HeLa cells by scintillation proximity assay; assay type: cell-based
# [6] = target: T3, Sodium-dependent serotonin transporter (Homo sapiens, UniProt P31645); test: Displacement of [3H]-citalopram from human serotonin transporter expressed in HEK 293 cells by scintillation proximity assay; assay type: cell-based, HEK293
# T3 sequence (P31645 whole entry): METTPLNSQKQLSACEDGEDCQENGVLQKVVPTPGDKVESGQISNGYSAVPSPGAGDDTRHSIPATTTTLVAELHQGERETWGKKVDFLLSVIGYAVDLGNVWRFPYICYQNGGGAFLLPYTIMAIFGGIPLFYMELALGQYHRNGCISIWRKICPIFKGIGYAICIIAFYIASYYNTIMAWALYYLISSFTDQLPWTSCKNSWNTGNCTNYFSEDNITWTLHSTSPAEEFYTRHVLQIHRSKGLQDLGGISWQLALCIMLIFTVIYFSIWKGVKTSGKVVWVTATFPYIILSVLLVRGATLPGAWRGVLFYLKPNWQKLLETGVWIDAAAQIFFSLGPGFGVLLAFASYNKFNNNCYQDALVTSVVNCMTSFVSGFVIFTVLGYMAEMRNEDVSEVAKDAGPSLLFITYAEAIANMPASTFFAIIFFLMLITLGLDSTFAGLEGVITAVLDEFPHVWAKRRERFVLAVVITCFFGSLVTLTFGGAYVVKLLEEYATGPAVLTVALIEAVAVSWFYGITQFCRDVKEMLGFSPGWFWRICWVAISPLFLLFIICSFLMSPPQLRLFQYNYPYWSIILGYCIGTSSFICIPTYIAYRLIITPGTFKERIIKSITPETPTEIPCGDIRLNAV
# [7] = target: T3, Sodium-dependent serotonin transporter; test: Displacement of [3H]-citalopram from human serotonin transporter expressed in HEK 293 cells; assay type: cell-based, HEK293
# [8] = target: T2, 5-hydroxytryptamine receptor 1A (Homo sapiens); test: Intrinsic activity at human […] 5HT1A receptor expressed in HeLa cells by FLIPR assay; assay type: cell-based
# Mus musculus [9] = test: In vivo intrinsic activity at D2 receptor in mouse brain assessed as inhibition of gamma-butyrolactone-induced increase in DOPA synthesis at 30 mg/kg, po administered 60 mins before gamma-butyrolactone challenge measured after 30 mins; assay type: functional
# Mus musculus [10] = test: Antipsychotic activity in po dosed mouse assessed as inhibition of spontaneous locomotor activity; assay type: functional; conditions: read-out: MED
# [11] = Apparent intrinsic clearance in human liver microsomes; assay type: ADME, Microsome
# Mus musculus [12] = test: Induction of catalepsy in mouse at 30 mg/kg, po; assay type: organism-based; set-up: dose 30 mg/kg, route oral; conditions: in vivo
# Chain of 5-hydroxytryptamine receptor 2A (P28223 whole entry): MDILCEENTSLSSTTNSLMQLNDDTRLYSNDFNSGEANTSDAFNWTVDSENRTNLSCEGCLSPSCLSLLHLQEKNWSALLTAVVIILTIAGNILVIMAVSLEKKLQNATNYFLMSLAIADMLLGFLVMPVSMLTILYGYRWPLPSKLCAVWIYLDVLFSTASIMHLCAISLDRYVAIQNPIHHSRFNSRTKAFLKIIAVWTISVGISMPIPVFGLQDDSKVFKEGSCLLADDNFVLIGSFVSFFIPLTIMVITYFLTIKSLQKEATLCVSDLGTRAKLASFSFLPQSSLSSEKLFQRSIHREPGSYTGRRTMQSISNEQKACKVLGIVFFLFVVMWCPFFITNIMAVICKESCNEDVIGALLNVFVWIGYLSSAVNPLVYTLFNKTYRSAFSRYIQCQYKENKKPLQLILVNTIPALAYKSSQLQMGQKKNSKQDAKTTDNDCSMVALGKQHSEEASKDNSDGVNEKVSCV
SMILES,Ki [1] [nM],Ki [5] [nM],Ki [6] [nM],other results
O=C1NCc2ccc(OCCCCN3CCN(c4cccc5c4COCC5)CC3)cc21,5.44,,,Ki [2]: 0.279 nM
Fc1ccc2cccc(N3CCN(CCCOc4ccc5c(c4)CNC5)CC3)c2c1,0.72,,,Intrinsic activity [3]: 73.3%; Ki [4]: 931 nM; Ki [2]: 0.102 nM
Cc1c(OCCCCN2CCN(c3cccc4ccccc34)CC2)ccc2c1C(=O)NC2,1.26,3.22,388,
O=C1NCc2ccc(OCCCCN3CCN(c4cccc5c4OCCC5)CC3)cc21,17.1,0.863,,
O=C1NCc2ccc(OCCCN3CCN(c4cccc5c4CCCC5)CC3)cc21,4.86,0.269,,
O=C1NCc2ccc(OCCCCN3CCN(c4cccc5ccccc45)CC3)c(F)c21,1.08,3.62,,Ki [7]: 2520 nM
O=C1NCc2cc(Cl)c(OCCCCN3CCN(c4cccc5cccc(F)c45)CC3)cc21,25.3,1.68,45.6,
O=C1NCc2ccc(OCCCN3CCN(c4cccc5ccc(F)cc45)CC3)c(F)c21,0.904,< 0.205,447,Ki [7]: 1770 nM
O=C1NCc2ccc(OCCCN3CCN(c4cccc5cc(F)c(F)cc45)CC3)cc21,20.1,,,Ki [4]: 907 nM; Ki [2]: 0.179 nM
O=C1NCc2ccc(OCCCCN3CCN(c4cccc5c4CCO5)CC3)cc21,53.4,1.45,,
O=C1NCc2ccc(OCCCN3CCN(c4cccc5cccc(F)c45)CC3)c(F)c21,3.45,< 0.14,,Ki [7]: 160 nM
O=C1NCc2ccc(OCCCCN3CCN(c4cccc5c4CCOC5)CC3)cc21,,,,Ki [2]: 1.99 nM
c1ccc2c(N3CCN(CCCCOc4ccc5c(c4)CNC5)CC3)cccc2c1,5.07,,,Ki [4]: 1560 nM; Ki [2]: 0.204 nM
O=C1NCc2ccc(OCCCCN3CCN(c4cccc5cc(F)ccc45)CC3)cc21,9.53,,,Ki [4]: 969 nM; Ki [2]: 13.4 nM
O=C1NCc2ccc(OCCCCN3CCN(c4cccc5c4CCCC5)CC3)cc21,3.35,1.92,,
Cc1c(OCCCCN2CCN(c3cccc4cc(F)ccc34)CC2)ccc2c1C(=O)NC2,14,17.5,47,
O=C1NCc2ccc(OCCCN3CCN(c4cccc5c4CCO5)CC3)cc21,4.29,1.46,,
O=C1NCc2ccc(OCCCCN3CCN(c4cccc5ccc(F)cc45)CC3)c(F)c21,2.1,4.56,,Ki [7]: 259 nM
O=C1NCc2ccc(OCCCN3CCN(c4cccc5ccccc45)CC3)c(F)c21,2.21,0.128,,Ki [7]: 84.7 nM
O=C1NCc2ccc(OCCCN3CCN(c4cccc5ccc(F)cc45)CC3)cc21,3.37,,,Ki [2]: 0.0447 nM

SMILES,Ki [1] [nM],Ki [5] [nM],Ki [6] [nM],other results
O=C1NCc2cc(F)c(OCCCCN3CCN(c4cccc5ccccc45)CC3)cc21,13,0.637,,Ki [7]: 30.8 nM
O=C1NCc2cc(Cl)c(OCCCCN3CCN(c4cccc5ccccc45)CC3)cc21,24.7,2.34,96.3,
Cc1cc2c(cc1OCCCCN1CCN(c3cccc4cc(F)ccc34)CC1)C(=O)NC2,29.5,1.98,8.81,
O=C1NCc2cc(F)c(OCCCN3CCN(c4cccc5ccccc45)CC3)cc21,32.1,0.671,,Ki [7]: 54.6 nM
O=C1NCc2cc(Cl)c(OCCCN3CCN(c4cccc5cccc(F)c45)CC3)cc21,8.84,0.859,20.2,
O=C1NCc2ccc(OCCCN3CCN(c4cccc5cccc(F)c45)CC3)c(Cl)c21,3.55,0.312,230,
O=C1NCc2cc(Cl)c(OCCCN3CCN(c4cccc5ccccc45)CC3)cc21,34.4,0.814,67.7,
Cc1c(OCCCN2CCN(c3cccc4ccccc34)CC2)ccc2c1C(=O)NC2,9.43,0.615,194,
O=C1NCc2ccc(OCCCN3CCN(c4cccc5ccccc45)CC3)cc21,,0.541,,Intrinsic activity [3]: 88.8%; Intrinsic activity [8]: 65.9%; Ki [4]: 2810 nM; Ki [2]: 0.0152 nM
O=C1NCc2ccc(OCCCCN3CCN(c4cccc5c4CCC5)CC3)cc21,10.1,0.74,,
O=C1CCc2ccc(OCCCCN3CCN(c4cccc(Cl)c4Cl)CC3)cc2N1 [ARIPIPRAZOLE],,,,Intrinsic activity [8]: 43%; Intrinsic activity (Mus musculus [9]): 43%; minimal effective dose (Mus musculus [10]): 3 mg/kg; CLint scaled [11]: 31.7 mL/min/kg; Activity (Mus musculus [12]): Non-toxic
O=C1NCc2ccc(OCCCN3CCN(c4cccc5c4COCC5)CC3)cc21,11.1,,,Ki [2]: 0.108 nM
O=C1NCc2ccc(OCCCCN3CCN(c4cccc5cc(F)ccc45)CC3)c(F)c21,3.07,5.01,,Ki [7]: 2720 nM
O=C1NCc2ccc(OCCCN3CCN(c4cccc5c4CCC5)CC3)cc21,3.16,> 4.04,,
O=C1NCc2ccc(OCCCN3CCN(c4cccc5c4OCCC5)CC3)cc21,25.3,0.0501,,
O=C1NCc2cc(F)c(OCCCCN3CCN(c4cccc5ccc(F)cc45)CC3)cc21,10,1.77,,Ki [7]: 110 nM
Cc1cc2c(cc1OCCCN1CCN(c3cccc4cccc(F)c34)CC1)C(=O)NC2,65.7,1.44,174,
O=C1NCc2ccc(OCCCCN3CCN(c4cccc5ccc(F)cc45)CC3)cc21,11.4,,,Ki [2]: 0.838 nM
Cc1c(OCCCN2CCN(c3cccc4cccc(F)c34)CC2)ccc2c1C(=O)NC2,16.1,2.13,437,
O=C1NCc2ccc(OCCCCN3CCN(c4cccc5cccc(F)c45)CC3)c(Cl)c21,1.13,4.25,213,

SMILES,Ki [1] [nM],Ki [5] [nM],Ki [6] [nM],other results
Cc1cc2c(cc1OCCCN1CCN(c3cccc4cc(F)ccc34)CC1)C(=O)NC2,52,0.517,13.6,
O=C1NCc2cc(F)c(OCCCCN3CCN(c4cccc5cccc(F)c45)CC3)cc21,3.49,0.118,42.6,Ki [7]: 10.5 nM
O=C1NCc2ccc(OCCCN3CCN(c4cccc5cc(F)ccc45)CC3)cc21,3.54,,,Ki [4]: 439 nM; Ki [2]: 1.54 nM
Cc1c(OCCCCN2CCN(c3cccc4cccc(F)c34)CC2)ccc2c1C(=O)NC2,3.85,2.61,292,
Cc1c(OCCCN2CCN(c3cccc4cc(F)ccc34)CC2)ccc2c1C(=O)NC2,12.5,1.08,21.4,
O=C1NCc2ccc(OCCCN3CCN(c4cccc5cc(F)ccc45)CC3)c(F)c21,5.41,3.04,24.7,Ki [7]: 37.4 nM
O=C1NCc2cc(F)c(OCCCCN3CCN(c4cccc5cc(F)ccc45)CC3)cc21,13.8,2.71,13,Ki [7]: 9.1 nM
Cc1cc2c(cc1OCCCCN1CCN(c3cccc4cccc(F)c34)CC1)C(=O)NC2,55,3.61,118,
O=C1NCc2ccc(OCCCCN3CCN(c4cccc5c4COC5)CC3)cc21,126,6.88,,
c1ccc2c(N3CCN(CCCOc4ccc5c(c4)CNC5)CC3)cccc2c1,1.76,,,Intrinsic activity [3]: 77.8%; Ki [2]: 0.149 nM
Cc1cc2c(cc1OCCCN1CCN(c3cccc4ccccc34)CC1)C(=O)NC2,55.9,0.67,1040,
Cc1cc2c(cc1OCCCCN1CCN(c3cccc4ccccc34)CC1)C(=O)NC2,36.8,0.803,504,
O=C1NCc2ccc(OCCCCN3CCN(c4cccc5cccc(F)c45)CC3)c(F)c21,0.568,2.09,48.1,Ki [7]: 57.2 nM
O=C1NCc2cc(F)c(OCCCN3CCN(c4cccc5cccc(F)c45)CC3)cc21,1.19,< 0.521,,Ki [7]: 15.6 nM
O=C1NCc2cc(F)c(OCCCN3CCN(c4cccc5cc(F)ccc45)CC3)cc21,38.5,0.88,9.22,Ki [7]: 22.2 nM
O=C1NCc2cc(F)c(OCCCN3CCN(c4cccc5ccc(F)cc45)CC3)cc21,2.68,0.341,419,Ki [7]: 13.6 nM
O=C1NCc2ccc(OCCCN3CCN(c4cccc5ccccc45)CC3)c(Cl)c21,2.06,0.786,104,
Fc1ccc2cccc(N3CCN(CCCCOc4ccc5c(c4)CNC5)CC3)c2c1,0.483,,,Ki [4]: 1680 nM; Ki [2]: 0.243 nM
O=C1NCc2ccc(OCCCN3CCN(c4cccc5cccc(F)c45)CC3)cc21,,,,Ki [4]: 1290 nM; Ki [2]: 0.0141 nM
O=C1NCc2ccc(OCCCCN3CCN(c4cccc5cc(F)c(F)cc45)CC3)cc21,,,,Ki [2]: 1.3 nM

# — ChEMBL document CHEMBL1255556, “6-Alkoxyisoindolin-1-one based dopamine D2 partial agonists as potential antipsychotics” (Bioorg Med Chem Lett, 2010)
